Data taken from the supplement of paper PMC13380429.
Structures can show the parent of a compound that is named as a salt. ± gives the standard deviation of the averaged measurements.

How the values were obtained:
Details in all cases: 72 h
Caco-2 [1] = assay: cell viability relative to DMSO; higher = less toxic
Calu-3 [2] = assay: as above
HepG2 [3] = assay: as above
U2OS [4] = assay: as above
Vero E6 [5] = assay: as above
Caco-2 [6] = assay: relative viability EC50 (midpoint between 100% and the lowest measured viability); higher = less toxic
Calu-3 [7] = assay: as above
HepG2 [8] = assay: as above
U2OS [9] = assay: as above
Vero E6 [10] = assay: as above
Caco-2 [11] = assay: drug sensitivity score (DSS) for viability; higher = more toxic; extreme values may be limits of the assay
Calu-3 [12] = assay: as above
HepG2 [13] = assay: as above
U2OS [14] = assay: as above
Vero E6 [15] = assay: as above

Row | Structure (SMILES) | cell viability (Caco-2 [1]; 1 nM) [%] | cell viability (Caco-2 [1]; 10 nM) [%] | cell viability (Caco-2 [1]; 100 nM) [%] | cell viability (Caco-2 [1]; 1000 nM) [%] | cell viability (Caco-2 [1]; 10000 nM) [%] | cell viability (Calu-3 [2]; 1 nM) [%] | cell viability (Calu-3 [2]; 10 nM) [%] | cell viability (Calu-3 [2]; 100 nM) [%] | cell viability (Calu-3 [2]; 1000 nM) [%] | cell viability (Calu-3 [2]; 10000 nM) [%] | cell viability (HepG2 [3]; 1 nM) [%] | cell viability (HepG2 [3]; 10 nM) [%] | cell viability (HepG2 [3]; 100 nM) [%] | cell viability (HepG2 [3]; 1000 nM) [%] | cell viability (HepG2 [3]; 10000 nM) [%] | cell viability (U2OS [4]; 1 nM) [%] | cell viability (U2OS [4]; 10 nM) [%] | cell viability (U2OS [4]; 100 nM) [%] | cell viability (U2OS [4]; 1000 nM) [%] | cell viability (U2OS [4]; 10000 nM) [%] | cell viability (Vero E6 [5]; 1 nM) [%] | cell viability (Vero E6 [5]; 10 nM) [%] | cell viability (Vero E6 [5]; 100 nM) [%] | cell viability (Vero E6 [5]; 1000 nM) [%] | cell viability (Vero E6 [5]; 10000 nM) [%] | relative viability EC50 (Caco-2 [6]) [µM] | relative viability EC50 (Calu-3 [7]) [µM] | relative viability EC50 (HepG2 [8]) [µM] | relative viability EC50 (U2OS [9]) [µM] | relative viability EC50 (Vero E6 [10]) [µM] | drug sensitivity score (Caco-2 [11]) | drug sensitivity score (Calu-3 [12]) | drug sensitivity score (HepG2 [13]) | drug sensitivity score (U2OS [14]) | drug sensitivity score (Vero E6 [15])
1 | c1ccc2c(-c3cnn4cc(-c5ccc(N6CCNCC6)cc5)cnc34)ccnc2c1 | 107 | 87.7 | 120 | 85.9 | 11.4 | 95.8 | 98.6 | 112 | 93.9 | 0.4 | 99.3 | 111 | 94.5 | 75.7 | -0.1 | 95.1 | 94.2 | 92.1 | 80.4 | -0.1 | 90 | 102 | 98.1 | 71.5 | -0.1 | 1.94 | 2.69 | 1.57 | 1.75 | 1.44 | 7.2 | 6.4 | 9.3 | 8.7 | 9.7
2 | C/C(=C\c1ccc(C(=O)O)cc1)c1ccc2c(c1)C(C)(C)CCC2(C)C [TTNPB] | 98.1 | 95.1 | 95 | 95.3 | 91.9 | 95 | 95.6 | 84.3 | 81.7 | 77.2 | 94.2 | 106 | 108 | 100 | 108 | 99.3 | 99.2 | 94.3 | 93.2 | 92.5 | 94.7 | 102 | 98.3 | 97.9 | 102 | > 10 | > 10 | > 10 | > 10 | > 10 | 0 | 3.9 | 0 | 0 | 0
3 | Cc1ccc(S(=O)(=O)c2ccc([N+](=O)[O-])o2)cc1 | 97.1 | 96.6 | 105 | 87.6 | 0 | 98 | 89.7 | 101 | 89.9 | 0 | 84.3 | 100 | 102 | 86.7 | 0 | 97.5 | 95.1 | 109 | 72.4 | 0 | 94.6 | 99.1 | 97.9 | 98.5 | -0.1 | 2.16 | 2.33 | 2.09 | 1.47 | 3.06 | 7.6 | 7.2 | 7.8 | 9.6 | 5.8
4 | Cc1cccc(COc2cccc(/C=C3\C(=O)NN(c4ccccc4)C3=O)c2)c1 [Y16] | 100 | 97.9 | 101 | 93.6 | 100 | 104 | 104 | 97.3 | 102 | 102 | 92.8 | 93.5 | 98.3 | 103 | 87.6 | 99.5 | 98.4 | 97.9 | 93.6 | 97.8 | 98.5 | 96.7 | 98.8 | 96.8 | 87.8 | > 10 | > 10 | > 10 | > 10 | > 10 | 0 | 0 | 0 | 0 | 0.2
5 | O=C(Nc1cc(-c2ccccc2)nn1-c1ccccc1)c1ccc([N+](=O)[O-])cc1 [VU29] | 106 | 96.2 | 102 | 95 | 96.6 | 102 | 102 | 107 | 98.5 | 111 | 105 | 112 | 108 | 100 | 90.2 | 110 | 101 | 107 | 99 | 99 | 100 | 96.4 | 101 | 94.2 | 88.6 | > 10 | > 10 | > 10 | > 10 | > 10 | 0 | 0 | 0 | 0 | 0.2
6 | Clc1ccc(Cn2c(CN3CCCC3)nc3ccccc32)cc1 [clemizole] | 95.5 | 94.7 | 97.6 | 97 | 84.7 | 95.7 | 98.4 | 101 | 101 | 107 | 112 | 111 | 94.3 | 106 | 89.1 | 101 | 97.7 | 98.6 | 105 | 97.8 | 102 | 104 | 103 | 99.2 | 92.3 | > 10 | > 10 | > 10 | > 10 | > 10 | 0.5 | 0 | 0 | 0 | 0
7 | CCc1ccc(Cc2ccc3c(c2)[C@]2(OC3)O[C@H](CO)[C@@H](O)[C@H](O)[C@H]2O)cc1 [tofogliflozin] | 97.8 | 98.5 | 86.1 | 97 | 90.5 | 90.9 | 92.7 | 108 | 103 | 108 | 106 | 94.3 | 102 | 105 | 95.5 | 97.9 | 96.9 | 97.5 | 98 | 95.5 | 93.9 | 95.6 | 99.4 | 94.6 | 98.4 | > 10 | > 10 | > 10 | > 10 | > 10 | 0 | 0 | 0 | 0 | 0
8 | C=CC[C@@H]1/C=C(\C)C[C@H](C)C[C@H](OC)[C@H]2O[C@@](O)(C(=O)C(=O)N3CCCC[C@H]3C(=O)O[C@H](/C(C)=C/[C@@H]3CC[C@@H](O)[C@H](OC)C3)[C@H](C)[C@@H](O)CC1=O)[C@H](C)C[C@@H]2OC [tacrolimus] | 99.8 | 101 | 88.8 | 103 | 93.8 | 99.1 | 103 | 96.6 | 100 | 107 | 108 | 99.6 | 103 | 98.2 | 104 | 96.9 | 102 | 98.7 | 104 | 98 | 96.3 | 91.6 | 88.5 | 90.3 | 108 | > 10 | > 10 | > 10 | > 10 | > 10 | 0 | 0 | 0 | 0 | 0
9 | O=C(O)c1ccccc1C(=O)Nc1ccc(S(=O)(=O)Nc2nccs2)cc1 [phthalylsulfathiazole] | 106 | 93.9 | 94.1 | 102 | 93.7 | 105 | 86.8 | 106 | 107 | 107 | 87.5 | 107 | 115 | 111 | 112 | 97.9 | 98 | 102 | 96.8 | 99.7 | 92.2 | 98.9 | 94.9 | 94.5 | 108 | > 10 | > 10 | > 10 | > 10 | > 10 | 0 | 0 | 0 | 0 | 0
10 | NC(=O)c1cccc(N)c1 [3-amino-benzamide] | 98.4 | 96.2 | 93.3 | 89 | 96.8 | 106 | 111 | 102 | 103 | 97.2 | 104 | 81.8 | 107 | 101 | 99.8 | 99.8 | 106 | 98.3 | 104 | 98.9 | 95.7 | 102 | 102 | 102 | 103 | > 10 | > 10 | > 10 | > 10 | > 10 | 0 | 0 | 0 | 0 | 0
11 | CC1/C=C/C=C/C=C/C=C/C=C/C=C/C=C/C(OC2O[C@H](C)[C@@H](O)[C@H](N)[C@@H]2O)CC(O)C(C(=O)O)C(O)CC(=O)CC(O)CC(O)CC(O)CC(=O)CCCC(=O)CC(=O)OC1C(C)CC(C)C(O)CC(=O)c1ccc(N)cc1 (stereo not given in full) [candicidin] | 82 | 90.8 | 87.1 | 92 | 77.1 | 101 | 102 | 102 | 104 | 97.5 | 109 | 96.4 | 103 | 103 | 98.6 | 105 | 99.9 | 101 | 101 | 96.8 | 101 | 104 | 96.7 | 104 | 77.2 | > 10 | > 10 | > 10 | > 10 | > 10 | 0 | 0 | 0 | 0 | 0.6
12 | O=c1[nH]c2ccccc2c(=O)n1CCCN1CCN(c2ccccc2)CC1 [pelanserin] | 101 | 102 | 94 | 103 | 91.7 | 94.5 | 96.2 | 103 | 102 | 116 | 91.1 | 93 | 95.7 | 107 | 93.6 | 97 | 104 | 95.6 | 95.2 | 94.8 | 104 | 105 | 102 | 105 | 95.5 | > 10 | > 10 | > 10 | > 10 | > 10 | 0 | 0 | 0 | 0 | 0
13 | NC(CO)(CO)CO [trometamol] | 93.4 | 102 | 111 | 112 | 97.3 | 92.4 | 117 | 103 | 101 | 108 | 101 | 93.7 | 106 | 86 | 100 | 93.3 | 96.6 | 98.8 | 101 | 107 | 102 | 98.6 | 106 | 86.4 | 95.4 | > 10 | > 10 | > 10 | > 10 | > 10 | 0 | 0 | 0 | 0 | 0
14 | COc1cccc2c1C(=O)c1c(O)c3c(c(O)c1C2=O)C[C@@](O)(C(=O)CO)C[C@@H]3O[C@H]1C[C@H](N)[C@@H](O)[C@H](C)O1 [Epirubicin Hydrochloride] | 95.8 ± 5.9 | 97 ± 6.3 | 89 ± 1.4 | 40.8 ± 1.2 | 30.9 ± 1.7 | 101 ± 3.3 | 102 ± 6.4 | 80 ± 6.6 | 41.2 ± 1.1 | 30.4 ± 0.49 | 102.8 ± 0.14 | 93.2 ± 12 | 49.7 ± 0.57 | 12.25 ± 0.071 | 4.25 ± 0.64 | 95.5 ± 1.4 | 99.7 ± 0.28 | 90.2 ± 1.8 | 17.1 ± 9.9 | 3.15 ± 1.3 | 100 ± 2 | 96.5 ± 2 | 96 ± 3.5 | 71.1 ± 3.7 | 34.4 ± 8 | 0.3 | 0.224 | 0.0903 | 0.349 | 1.13 | 12.3 ± 0.35 | 13.3 ± 0.99 | 22.9 ± 0.14 | 16.6 ± 1.5 | 7
